{"source": "paper PMC3625590", "about": "“NBM-T-L-BMX-OS01, Semisynthesized from Osthole, Is a Novel Inhibitor of Histone Deacetylase and Enhances Learning and Memory in Rats” (Evidence-based Complementary and Alternative Medicine : eCAM, 2013)", "key": {"CREB": {"system": "CREB", "assay": "CREB phosphorylation at Ser133 in hippocampal cultured neurons", "assay_type": "cell-based, Sprague-Dawley rats", "method": "The primary hippocampal culture was prepared as described previously. To culture embryonic hippocampal primary neurons, pregnant Sprague-Dawley rats were purchased from the National Laboratory Center in Taiwan. The hippocampal tissue from the embryos of the Sprague-Dawley rats (E19) was dissociated with 100 U/mL of papain (Sigma-Aldrich) and plated onto poly-L-lysine-coated coverslips at a density of 1 × 10^4 cells/cm^2 with a minimal essential medium containing 5% calf serum, 5% horse serum, and 50 ng/mL insulin-transferrin-selenite (Sigma-Aldrich). Three hours after plating, the medium was replaced with 2% of a B27-neurobasal medium (Invitrogen, Carlsbad, CA, USA) containing 0.5 mM glutamine and 12.5 μM glutamate.\nThe hippocampus tissue and primary hippocampal cells were lysed and sonicated in an RIPA buffer (50 mM Tris-HCl (pH 7.4), 150 mM NaCl, 2 mM EDTA, 1% IGEPAL CA-630, 1 mM phenylmethylsulfonyl fluoride (PMSF), 20 μg/mL pepstatin A, 20 μg/mL leupeptin, 20 μg/mL aprotinin, 50 mM NaF, and 1 mM Na3VO4). The protocol was performed as described previously. The lysate was resolved by 8% SDS-PAGE. […] The protein bands were quantified using the NIH Image J Software."}, "naïve rats": {"system": "naïve rats", "assay": "Passive one-way inhibitory avoidance learning, naïve rats", "assay_type": "in vivo, Sprague-Dawley rats", "conditions": "5 mg/kg/d i.p., 1 day and 7 days after footshock", "method": "SAHA was supplied by NatureWise Biotech and Medicals Corporation (Taipei, Taiwan). […] (St. Louis, MO, USA). The BMX and SAHA stock (100 mg/mL) was dissolved in DMSO and diluted with saline to a final concentration of 0.5 mg/mL (in 0.5% DMSO/saline). […] SD rats were randomly divided into 3 groups. For the naïve animal experiments, the BMX-injected or SAHA-injected groups were injected with BMX (5 mg/kg/d) or SAHA (5 mg/kg/d) intraperitoneally 7 d prior to behavioral experiments and during the experimentation. The control group received the 0.5% DMSO/saline injection. The injection volume was 10 μL/g of body weight. The injections were performed once per day. For the amnesia experiment, the protocol was adopted from previous studies with modifications. […] The control group received the 0.5% DMSO/saline injection. The injection volume was 10 μL/g of body weight. […] The apparatus consisted of a trough-shaped alley divided by a sliding door that separates an illuminated safety compartment and a dark compartment. A shock generator that produced current was connected to the floor of the dark compartment (UGO Basile, Comerio (VA), Italy). The method used was adopted from that of previous studies with modifications. The behavioral task, including the training and testing procedures, was recorded between 8:00 AM and 6:00 PM. […]"}, "Sco-induced amnesia rats": {"system": "Sco-induced amnesia rats", "assay": "Passive one-way avoidance, Sco-induced memory impairment", "assay_type": "in vivo, Sprague-Dawley rats", "conditions": "Sco 1.5 mg/kg/d; BMX or SAHA 5 mg/kg/d i.p.; 1 day and 7 days after footshock", "quoted_text": "The BMX and SAHA stock (100 mg/mL) was dissolved in DMSO and diluted with saline to a final concentration of 0.5 mg/mL (in 0.5% DMSO/saline). Sco was dissolved in saline to a final concentration of 0.15 mg/mL based on previous studies [35, 36]. SD rats were randomly divided into 3 groups. For the naïve animal experiments, the BMX-injected or SAHA-injected groups were injected with BMX (5 mg/kg/d) or SAHA (5 mg/kg/d) intraperitoneally 7 d prior to behavioral experiments and during the experimentation. The control group received the 0.5% DMSO/saline injection. The injection volume was 10 μL/g of body weight. The injections were performed once per day. For the amnesia experiment, the protocol was adopted from previous studies [35, 36] with modifications. The Sco-injected (SAHA + Sco) or (BMX + Sco)-injected groups were injected with Sco (1.5 mg/kg/d), SAHA (5 mg/kg/d) or BMX (5 mg/kg/d), intraperitoneally 7 d prior to behavioral experiments and during the experimentation. The control group received the 0.5% DMSO/saline injection. The injection volume was 10 μL/g of body weight. […]\nThe apparatus consisted of a trough-shaped alley divided by a sliding door that separates an illuminated safety compartment and a dark compartment. […] The behavioral task, including the training and testing procedures, was recorded between 8:00 AM and 6:00 PM. […]"}}}
{"molecule": "O=C(CCCCCCC(=O)Nc1ccccc1)NO", "note": "[SAHA, suberoylanilide hydroxamic acid, reference compound]", "values": [{"measurement": "CREB phosphorylation at Ser133", "setting": "CREB", "result": "increased CREB phosphorylation at Ser133"}, {"measurement": "retention time in the illuminated chamber", "setting": "naïve rats", "result": "No difference in retention performance"}, {"measurement": "retention time in the illuminated chamber", "setting": "Sco-induced amnesia rats", "result": "showed less retention time in the illuminated chamber"}]}
